From patent US20210275415A1, “AN ANTIMICROBIAL COMPOSITION” (Conopco, Inc., d/b/a UNILEVER, priority 2017, published 2021)
Where two headings read alike, the source gives them in different places.

What was measured:
[1] = tested on: Staphylococcus aureus; assay: ΣFIC assay against Staphylococcus aureus (MIC by alamar blue, checkerboard); format: cell-based, S. aureus (ATCC 12600); conditions: for MIC: Staphylococcus aureus, 24 h, read-out: Minimum Inhibition Concentration (MIC); for interaction of the combination (synergy/additivity) in words: conclusion from Table 2
Procedure: Effect of sphingosine with triclosan as well as triclocarban was also tested. A brief description of the method is given below.
Methods: ΣFIC assay against Staphylococcus aureus
They are then incubated at 37° C. overnight (16 hours) with shaking. The overnight culture is diluted using TSB to 5*10^4 cell/ml.
Zinc pyrithione was serially diluted (2-fold) to prepare in a range of 0.5 to 500 ppm in the growth medium. The AML compound was serially diluted (2-fold) to prepare in a range of 16 to 1,000 ppm for sapienic acid, and palmitoleic acid; and 4 to 250 ppm for other AMLs in growth medium. Triclosan was serially diluted (2-fold) to prepare in a range of 0.2 to 200 ppm and triclocarban in a range of 2 to 2000 ppm in growth medium.
(§1) Binary combinations of ZPTO or triclosan/triclocarban and the AML compound were prepared in 96-well plate by mixing 20 μl of zinc pyrithione solution with 20 μl of AML compound. The solution in each well were further mixed with 160 μl of TSB and 20 μl of S. aureus. The final cell density in the testing plate is around 4*10^4 cell/ml, and the final concentration of actives in each well of the 96-well plate were shown below.
Then 20 μl of alamar blue (0.01%) was added into each well, and the plate was incubated at 37° C. for one day to observe the color change. Red color indicates microbial growth and the non-changing blue color indicates no growth.
(§2) The MIC is defined as the absolute lowest concentration of active that provides complete microbial growth inhibition as indicated by the blue color of alamar blue under the tested condition.
The differing behaviors of inhibitory antimicrobials in isolation and mixtures have been widely explored using the concept of the Fractional Concentration (FC) and Fractional Inhibitory Concentration (FIC). The parameter can be defined as follows: […]
(§3) These relationships can be expressed mathematically by summing the fractional MIC values for all the components present in the mixture to give the “fractional inhibition index”. There is no consistent approach in the academic or patent literature in defining precise limiting ΣFIC values that differentiate synergy from additivity or antagonism. In this study, we have adopted a liberal approach defining any binary mixture with ΣFIC<0.9 as showing evidence of synergistic behavior.

[2] = tested on: Malassezia furfur; assay: ΣFIC assay against Malassezia furfur (MIC by alamar blue, checkerboard); format: cell-based, M. furfur (CBS 1878); conditions: M. furfur, Pityrosporum Broth, 32° C., lowest concentration giving complete growth inhibition (alamar blue stays blue), active alone; for MIC: Malassezia furfur, read-out: Minimum Inhibition Concentration (MIC)
Procedure: Synergistic interaction between ZPTO and the AML compounds was determined using the ΣFIC assay against Malassezia furfur. A brief description of the method is given below.
Method: ΣFIC assay against Malassezia furfur
They are then incubated at 32° C. for 48 hours with shaking. Then, 1 ml of the first broth culture is transferred into 9 ml of fresh PB and incubated at 32° C. for 48 hours with shaking. The final culture should contain 2 to 6×10^6 cells/ml. This is achieved by diluting using PB to 5*10^5 cell/ml.
as §1, with “ZPTO” for “ZPTO or triclosan/triclocarban”, “PB” for “TSB”, “M. furfur.” for “S. aureus.”, “5*10^4” for “4*10^4”
The plate was incubated at 32° C. for one day. Then 20 μl of alamar blue (0.01%) was added into each well with a further incubation for one day to observe the color change. Red color indicates microbial growth and the non-changing blue color indicates no growth.
as §2
The differing behaviour of inhibitory antimicrobials in isolation and mixtures have been widely explored using the concept of the Fractional Concentration (FC) and Fractional Inhibitory Concentration (FIC). The parameter can be defined as follows: […]
as §3

[3] = S. aureus, TSB, 37° C. one day, lowest concentration giving complete growth inhibition (alamar blue stays blue), active alone

CCCCCCCCC/C=C\CCCCC(=O)O [sapienic acid]
Minimum Inhibition Concentration (MIC) [1, 3]: 25 ppm

CCCCCCCCCCCCCC[C@@H](O)[C@@H](O)[C@@H](N)CO [phytosphingosine]
MIC [2]: 125 µg/mL

CCCCCCCCCCCCC/C=C/[C@@H](O)[C@@H](N)CO [sphingosine]
MIC [1, 3]: 3.1 µg/mL
MIC [2]: 1000 µg/mL

CCCCCC/C=C\CCCCCCCC(=O)O [palmitoleic acid]
MIC [2]: 5000 µg/mL

CCCCCCCCCCCCCCC[C@@H](O)[C@@H](N)CO [dihydrosphingosine]
Minimum Inhibition Concentration (MIC) [1, 3]: 6.3 ppm
Minimum Inhibition Concentration (MIC) [2]: 1000 ppm

O=C(Nc1ccc(Cl)cc1)Nc1ccc(Cl)c(Cl)c1 [triclocarban]
interaction of the combination (synergy/additivity) in words ([1]; S. aureus): additive but not synergistic effect
MIC [1, 3]: 3.13 µg/mL

Oc1cc(Cl)ccc1Oc1ccc(Cl)cc1Cl [triclosan]
interaction of the combination (synergy/additivity) in words ([1]; S. aureus): additive but not synergistic effect
MIC [1]: 0.16 µg/mL
